Measurements as given in a melting point compilation (Tetko et al.).

SMILES: Nc1cccc(Cn2cnc3ccccc32)c1
- melting point: 168 to 170 °C

SMILES: CC1CNC(=O)CC(C)C1 (stereo not drawn)
- melting point: 122 to 124 °C

SMILES: Cc1cc(Br)c(C(=O)O)cn1
- melting point: 119 to 121 °C

SMILES: Nc1nccc(-c2cccnc2)n1
- melting point: 188 to 190 °C

SMILES: Cc1nn(Cc2ccccc2)c(Cl)c1CCl
- melting point: 53 to 55 °C

SMILES: CC1CCCN1C(=O)c1cc2ccccc2cc1N (stereo not drawn)
- melting point: 123 to 125 °C

SMILES: O=CN1CCc2cc(C(=O)CCl)ccc21
- melting point: 146 to 148 °C

SMILES: CC(C)Cn1c(S)nc2scc(-c3cccs3)c2c1=O
- melting point: 236 to 238 °C

SMILES: Cc1nc(Cl)ccc1C(=O)O
- melting point: 149 to 151 °C

SMILES: CC1(C)CCc2sc(C(=O)O)cc2C1
- melting point: 138 to 140 °C

SMILES: NC(=O)Nc1ccc(N)cc1
- melting point: 155 to 157 °C

SMILES: CC1(C)CCC(C)(C)c2cc(C(=O)O)ccc21
- melting point: 199 to 201 °C

SMILES: O=C(CCl)Nc1ccc(Cl)cn1
- melting point: 142 to 144 °C

SMILES: Brc1csc(Br)n1
- melting point: 80 to 84 °C

SMILES: Cc1ccccc1-c1cc(N)n(CCO)n1
- melting point: 128 to 130 °C

SMILES: CNC(=O)c1cccc(N)c1C
- melting point: 178 to 180 °C

SMILES: CCSc1cc(Br)ccc1C=O
- melting point: 50 to 52 °C

SMILES: Cc1ccc(-n2c(C)nnc2S)cc1
- melting point: 98 to 100 °C

SMILES: Clc1nc(Br)n[nH]1
- melting point: 178 to 180 °C

SMILES: Nc1cccc2ccncc12
- melting point: 169 to 171 °C

SMILES: O=C(O)CCc1ccccn1
- melting point: 134 to 136 °C

SMILES: Clc1cc(-c2ncc[nH]2)ccn1
- melting point: 187 to 189 °C

SMILES: COC(=O)c1ccc(C(=O)c2cc[nH]c2)cc1
- melting point: 159 to 161 °C

SMILES: COc1ccc(C=CC(=O)O)cc1S(=O)(=O)N1CCOCC1
- melting point: 238 to 240 °C

SMILES: O=[N+]([O-])c1ccc(Cl)c(S(=O)(=O)N2CCCC2)c1
- melting point: 114 to 116 °C

SMILES: O=c1[nH][nH]c2ncc(Br)cc12
- melting point: 219 to 221 °C

SMILES: CCn1cc(C(=O)O)cn1
- melting point: 144 to 146 °C

SMILES: CC(C)c1ccc(C(N)=S)cc1
- melting point: 148 to 150 °C

SMILES: Cc1cc(C(=O)O)c2[nH]ncc2c1
- melting point: 286 to 288 °C

SMILES: O=C(O)CCNC(=O)c1cccs1
- melting point: 220 to 222 °C

SMILES: Cn1c(=O)n(C)c2cc(C(=O)O)c(Br)cc21
- melting point: 289 to 291 °C

SMILES: c1ccc2c(c1)nc1n2CCN1
- melting point: 194 to 206 °C

SMILES: CC(=O)c1ccc(-c2ccccc2Cl)s1
- melting point: 54 to 56 °C

SMILES: CC(Cl)C(=O)Nc1ccc([N+](=O)[O-])cc1C(F)(F)F (stereo not drawn)
- melting point: 183 to 185 °C

SMILES: Cc1ccc(C(=O)O)cc1S(N)(=O)=O
- melting point: 275 to 277 °C

SMILES: CCNc1ccc(C#N)c(Cl)c1
- melting point: 69 to 71 °C

SMILES: O=C(O)c1cc(F)c(F)cc1Br
- melting point: 118 to 122 °C

SMILES: COc1ccc(C=O)cc1Cl
- melting point: 56 to 58 °C

SMILES: Cc1cc(C(=O)NN)c(C)n1-c1ccc(F)cc1
- melting point: 160 to 162 °C

SMILES: Nc1ccn(-c2ccncc2)n1
- melting point: 192 to 194 °C

SMILES: CNC(=O)c1ccc(C)c(N)c1
- melting point: 167 to 169 °C

SMILES: c1cc(-c2nnc[nH]2)ccn1
- melting point: 225 to 227 °C

SMILES: O=c1[nH]c2ccc(NCc3ccccc3)cc2[nH]1
- melting point: 242 to 244 °C

SMILES: CS(=O)(=O)c1nc2ccccc2s1
- melting point: 86 to 89 °C

SMILES: Cc1cccc(CNc2ccc3[nH]c(=O)[nH]c3c2)c1
- melting point: 216 to 218 °C

SMILES: NC(=O)COc1cccc(O)c1
- melting point: 134 to 136 °C

SMILES: CCOC(=O)c1c(N)sc(C(=O)OC(C)(C)C)c1C
- melting point: 108 to 110 °C

SMILES: O=C(O)CN1CCC(=O)NC1=O
- melting point: 197 to 199 °C

SMILES: O=C(O)c1cc([N+](=O)[O-])ccc1I
- melting point: 194 to 196 °C

SMILES: CCOC(=O)CN(C(=O)CCl)c1ccccc1
- melting point: 130 to 135 °C

SMILES: NC(=O)c1cc(OC2CCNCC2)ccn1
- melting point: 129 to 131 °C

SMILES: O=C(NC1CCNCC1)c1ccccc1
- melting point: 138 to 140 °C

SMILES: CN(C)C(=O)Cn1ccc(N)n1
- melting point: 58 to 60 °C

SMILES: O=C(NC1CCN(Cc2ccccc2)CC1)c1cccc(F)c1
- melting point: 143 to 145 °C

SMILES: Clc1nc(-c2cccs2)nc2ccccc12
- melting point: 123 to 125 °C

SMILES: NNC(=S)NC1CC1
- melting point: 100 to 102 °C

SMILES: O=C(O)CN1CC(=O)Nc2ccccc21
- melting point: 218 to 220 °C

SMILES: N#CC1(N)CCSC1 (stereo not drawn)
- melting point: 54 to 56 °C

SMILES: NC(=S)Cc1nnc2n1CCCCC2
- melting point: 227 to 229 °C

SMILES: O=C(Nc1ccc(-c2ccccc2)cc1)OCC(F)(F)F
- melting point: 168 to 170 °C

SMILES: COc1ccc(N)cc1OCc1ccncc1
- melting point: 116 to 118 °C

SMILES: O=C(O)c1c[nH]c(-c2ccccc2)n1
- melting point: 240 to 242 °C

SMILES: Nc1nc(CO)n[nH]1
- melting point: 193 to 195 °C

SMILES: COC(=O)C(=O)CC(=O)c1ccc(OC)cc1
- melting point: 104 to 106 °C

SMILES: O=C(O)C=Cc1ccc(Br)o1
- melting point: 125 to 135 °C

SMILES: O=C(O)c1cc(S)ccc1[N+](=O)[O-]
- melting point: 234 to 236 °C

SMILES: NNC(=O)CN1C(=O)COc2ccccc21
- melting point: 152 to 154 °C

SMILES: CC(C)c1nnn[nH]1
- melting point: 104 to 106 °C

SMILES: O=C(O)CN1C(=O)C2C3C=CC(C3)C2C1=O (stereo not drawn)
- melting point: 146 to 148 °C

SMILES: CC(C)c1c(C(=O)O)cnn1-c1ccc(C(F)(F)F)cn1
- melting point: 168 to 170 °C

SMILES: NC(=S)c1ncccn1
- melting point: 197 to 199 °C

SMILES: CCOC(=O)C1CCN(S(=O)(=O)Cl)CC1
- melting point: 38 to 40 °C

SMILES: O=C1CCCc2sccc21
- melting point: 38 to 40 °C
